According to publication PMC10424242, “Macrocyclic Peptidomimetic Plasmepsin X Inhibitors with Potent In Vitro and In Vivo Antimalarial Activity” (Journal of Medicinal Chemistry, 2023):
Entries after “also recorded” stand apart in the source; their conditions may differ. Read-outs that look alike come from different tables or passages of the source.

Legend:
[1] = molecular target: recombinant P. falciparum PMX (Plasmodium falciparum, UniProt Q8IAS0); assay: Recombinant P. falciparum PMX inhibition assay (fluorogenic substrate Rh2N); assay type: biochemical
Method: The fluorescence of this peptide is quenched by the spatial proximity of the DABCYL/EDANS groups in the uncleaved peptide and is increased upon cleavage at the internal F–I bond. […] Control wells contained no inhibitor, and the plate was blanked against the substrate only in DB. […] All experiments were performed in duplicate.

[2] = Tolerability testing in mice; assay type: in vivo, NMRI female mice; settings: p.os 50 mg/kg up to 24 h, 0–6 score system
Method: NMRI female mice (10–12 weeks old, 29–32 g) were obtained from ENVIGO (The Netherlands) and housed prior to treatment under standard conditions (acclimatization period of 1 week, 21–23 °C, 12-h light/dark cycle, relative humidity 45–65%) with unlimited access to food (R70 diet from Lantmännen) and water. The experimental procedures were performed in accordance with the guidelines of the European Community and local laws and policies (Directive 2010/63/EU), and all of the procedures were approved by Food and Veterinary Service, Riga, Latvia. Animals were weighed on the day of the treatment (before treatment) to calculate the required amount of compound for the corresponding dose. For tolerability and PK studies, the mice were dosed via a peroral (PO) bolus administration (volume 10 mL/kg). Toxicity signs were scored 0–2, 5, 10, 15, 30, 60, 120, 240 min, and 24 h after administration using a widely used 0–6 score system.

P. falciparum schizonts = assay: Washout assay, schizont rupture and new ring formation; assay type: cell-based; settings: 20 nM ∼44 h, […] with added RBCs
Method: (§1) The schizont cultures lacking added RBCs were supplemented with compound C2, which blocks the discharge of exonemes, the parasite secretory organelles in which PMX and SUB1 are stored before egress. The schizonts without added RBCs were sampled for Western blot analysis, while the schizont cultures containing RBCs were examined by microscopy and flow cytometry after a further 4 h in culture to quantify schizont rupture and new ring formation.
(§2) Synchronous parasite cultures were cultured from ring to schizont stage (∼44 h) in the presence of DMSO alone (0.04% v/v; control) or macrocycle compounds (20 nM final concentration). Schizonts were isolated by Percoll enrichment (still in the presence of the test compound), then either immediately frozen or further incubated in the absence of the drug but in the presence of C2 (1 μM) for 1 h at 37°C in the absence of added RBCs or for 3.5 h in the presence of added RBCs. The schizonts without added RBCs were then frozen too, and all schizont samples were then thawed into CHAPS–urea extraction buffer, subjected to sodium dodecyl sulfate-polyacrylamide gel electrophoresis (SDS-PAGE), and analyzed by Western blot, probing with antibodies against SUB1 or RAP1. For schizonts cultured in the presence of added RBCs, ring formation was assessed in two ways: cultures were examined microscopically by Giemsa stain of thin films and were also fixed with glutaraldehyde and processed for quantification of ring formation by flow cytometry as described above.

[3] = Plasma protein binding (rapid equilibrium dialysis); assay type: in vitro ADME; settings: pH 7.4, mouse plasma, 2 h at 37 °C
Method: Plasma protein binding was performed with rapid equilibrium dialysis (RED) device inserts containing a dialysis membrane with a molecular weight cut-off of 8000 Daltons. Inserts were placed in the single-use RED plate without prior preparation.
The test compound at a concentration of 5 μM was added to mouse plasma and dialyzed against phosphate-buffered saline (PBS, pH 7.4) for 2 h at 37 °C. Propranolol hydrochloride was used as a positive control (high PPB), and fluconazole was used as negative control (low PPB). After dialysis, the drug concentration in the buffer and plasma compartments was quantified by liquid chromatography and tandem mass spectrometry (LC-MS/MS) analysis.

[4] = test system: P. falciparum Pf3D7^0087/N9; assay: In vivo efficacy against P. falciparum in the TAD PfalcHuMouse model
Method: Therapeutic efficacy studies were performed at TAD using a standardized humanized mouse model of P. falciparum malaria[31] with modifications.[34] […] The volume of injections was 1 and 0.7 mL for i.p. or i.v. inoculation, respectively.
The inoculum was obtained from peripheral blood of CO2-euthanized donor mice harboring 5–10% parasitemia.
Before drug administration, each infected mouse was randomly assigned to its corresponding treatment. […] The treatment was administered by oral gavage with 20G straight reusable feeding needles (Fine Science Tools GmbH) at 10 mL·kgbodyweight^–1 unless otherwise stated.
Parasitemia was measured in serial 2 μL of samples of tail blood by flow cytometry and expressed as the % of parasitized erythrocytes with respect to the total erythrocytes in circulation.
The clearance of parasitized erythrocytes from the peripheral blood of mice was assessed by measuring the parasite reduction ratio (PRR) calculated as the ratio between parasitemia at Day n + 2 divided by parasitemia at Day n for each individual of the study.
The parasiticidal effect of drugs in vivo was assessed by measuring the day of recrudescence (DoR) as described.[34] In short, DoR was defined as the day at which parasitemia after drug treatment reached the % parasitemia at treatment inception. Drug-treated mice were deemed cured if there was no detectable parasitemia 60 days after treatment.

[5] = test system: SUB1 p54 to p47 conversion (PMX activity); assay: Washout assay, SUB1 maturation by Western blot; assay type: cell-based, P. falciparum; settings: 20 nM ∼44 h, C2 1 μM for 1 h
Method: as §1, §2

[6] = test system: maturation of the PMX substrate SUB1 (p54 to p47); assay: Western blot of SUB1 maturation in treated schizonts; assay type: cell-based, P. falciparum; settings: 20 nM, 44 h
Method: This phenotype is characteristic of the inhibition of PMX.
as §2

Chain of recombinant P. falciparum PMX (Q8IAS0 222-573): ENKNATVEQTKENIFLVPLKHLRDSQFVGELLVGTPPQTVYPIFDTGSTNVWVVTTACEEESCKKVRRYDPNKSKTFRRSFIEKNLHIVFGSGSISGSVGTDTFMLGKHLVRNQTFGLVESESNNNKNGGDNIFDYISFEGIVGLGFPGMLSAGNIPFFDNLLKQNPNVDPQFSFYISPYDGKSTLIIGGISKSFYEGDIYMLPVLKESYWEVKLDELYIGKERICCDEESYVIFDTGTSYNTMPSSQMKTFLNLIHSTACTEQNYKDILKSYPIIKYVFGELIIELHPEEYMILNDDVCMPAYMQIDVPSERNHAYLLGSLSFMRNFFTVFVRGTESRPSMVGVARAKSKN

CCCN1CCCCCc2cccc(c2)C[C@@H]([C@H](O)CNC(C)(C)c2cccc(OC)c2)NC(=O)c2cccc(c2)C1=O [7k, (S)-4-((R)-1-Hydroxy-2-((2-(3-methoxyphenyl)propan-2-yl)amino)ethyl)-12-propyl-3,12-diaza-1,6(1,3)-dibenzenacyclotridecaphane-2,13-dione]
IC50 ([1]; Table 3, read-out: PMX, nM (as listed in Table 3)): 0.4 ± 0.03 nM
improvement of PMX inhibitory potency ([1]; compared to 7a): 10 fold
IC50 ([1]; recombinant PMX, read-out: PMX, nM (IC50)): 0.4 ± 0.03 nM
tolerability [2]: No adverse effects were observed; also recorded: no toxic effect (score 0)
new ring formation after washout (P. falciparum schizonts): minimal rings were produced
fraction unbound at 2 h, 5 µM [3]: 0.0027
clearance of parasitemia from peripheral blood ([4]; 40 mg/kg p.o., UID, BID or TID): cleared parasitemia from the peripheral blood in a dose-dependent manner
parasite clearance rate compared with chloroquine ([4]; chloroquine at 10 mg/kg for 2 days in the same system): comparable to those produced by chloroquine at 10 mg/kg for 2 days
parasite killing in vivo (DoR versus exposure) compared with chloroquine ([4]; comparable treatment regimens, chloroquine historical data): as potent as chloroquine
distribution of parasite stages in peripheral blood ([4]; day 3 of the assay, flow cytometry and microscopy): relative accumulation of circulating mature schizonts compared to untreated controls
effect on parasite burden ([4]; three times a day for 4 days at 40 mg/kg, oral): eliminated P. falciparum from peripheral blood at a rate comparable to chloroquine single-dose administration for 2 days (10 mg/kg)
SUB1 p54 to p47 conversion after washout [5]: no conversion of SUB1 p54 to p47 occurred
maturation of SUB1 (p54 to p47) [6]: clear defect in maturation of the PMX substrate SUB1
